# Columns and labels:
# [1] = Inhibition of [3H]- epibatidine binding at the Nicotinic acetylcholine receptor alpha beta (nAChR) in male rat cerebral cortex; assay type: tissue-based
# Rattus norvegicus [2] = species: Rattus norvegicus; assay: Agonist activity against alpha beta Nicotinic acetylcholine receptor (nAChR) in male rat cerebral cortex using antinociceptive assay in hot plate test; assay type: functional
# Rattus norvegicus [3] = species: Rattus norvegicus; assay: Agonist activity against alpha beta Nicotinic acetylcholine receptor (nAChR) in male rat cerebral cortex using antinociceptive assay in hypothermia test; assay type: functional
# Rattus norvegicus [4] = species: Rattus norvegicus; assay: Agonist activity against alpha beta Nicotinic acetylcholine receptor (nAChR) in male rat cerebral cortex using antinociceptive assay in tail flick test; assay type: functional
# Rattus norvegicus [5] = assay: Antagonist activity after subcutaneously administration of nicotine at a dose of 2.5 mg/kg in hot- plate test at a concentration of 0.05 mg/kg; assay type: functional; set-up: scale not given: the % may be the effect or the level left
# Rattus norvegicus [6] = assay: Antagonist activity after subcutaneously administration of nicotine at a dose of 2.5 mg/kg in tail-flick test at a concentration of 0.05 mg/kg; assay type: functional; set-up: scale not given: the % may be the effect or the level left
# [7] = target: Neuronal acetylcholine receptor subunit alpha-7 (Rattus norvegicus, UniProt Q05941); assay: Inhibition of [125I]- iodo-MLA binding at the Nicotinic acetylcholine receptor alpha-7 (nAChR) in male rat cerebral cortex; assay type: tissue-based
# Rattus norvegicus [8] = assay: Antagonist activity after subcutaneously administration of nicotine at a dose of 2.5 mg/kg in hotplate test at a concentration of 0.05 mg/kg; assay type: functional; set-up: scale not given: the % may be the effect or the level left
# Rattus norvegicus [9] = species: Rattus norvegicus; assay: Agonist activity against alpha beta Nicotinic acetylcholine receptor (nAChR) in male rat cerebral cortex in antinociceptive assay in hot plate test; assay type: functional
# Rattus norvegicus [10] = species: Rattus norvegicus; assay: Agonist activity against alpha beta Nicotinic acetylcholine receptor (nAChR) in male rat cerebral cortex in antinociceptive assay in hypothermia test; assay type: functional
# Rattus norvegicus [11] = species: Rattus norvegicus; assay: Agonist activity against alpha beta Nicotinic acetylcholine receptor (nAChR) in male rat cerebral cortex in antinociceptive assay in tail flick test; assay type: functional
# Rattus norvegicus [12] = assay: Antagonist activity after subcutaneously administration of nicotine at a dose of 2.5 mg/kg in hot- plate test, the values expressed as 95% confidence limit (value in parentheses is 95% confidence limits); assay type: functional; conditions: route subcutaneous
# Rattus norvegicus [13] = assay: Antagonist activity after subcutaneously administration of nicotine at a dose of 2.5 mg/kg in tail-flick test (value in parentheses is 95% confidence limits); assay type: functional; conditions: route subcutaneous
# [14] = target: T1, Neuronal acetylcholine receptor (Rattus norvegicus) (UniProt P04757+P09483+P12389+P12390+P12392+P43144+Q9JLB5+P12391+P43143+P20420+Q05941); assay: Agonist activity against alpha beta Nicotinic acetylcholine receptor (nAChR) in male rat cerebral cortex in antinociceptive assay in hypothermia test at a dose of 10 mg/kg; assay type: functional, organism-based; set-up: dose 10 mg/kg
# [15] = target: T1, Neuronal acetylcholine receptor (Rattus norvegicus); assay: Agonist activity against alpha beta Nicotinic acetylcholine receptor (nAChR) in male rat cerebral cortex in antinociceptive assay in tail flick test at a dose of 10 mg/kg; assay type: functional, organism-based; set-up: dose 10 mg/kg
# [16] = target: T1, Neuronal acetylcholine receptor (Rattus norvegicus); assay: Agonist activity against alpha beta Nicotinic acetylcholine receptor (nAChR) in male rat cerebral cortex in antinociceptive assay in hot plate test at a dose of 10 mg/kg; assay type: functional, organism-based; set-up: dose 10 mg/kg
# Rattus norvegicus [17] = assay: Antagonist activity after subcutaneously administration of nicotine at a dose of 2.5 mg/kg in hot- plate test at a concentration of 0.01 mg/kg; assay type: functional; set-up: scale not given: the % may be the effect or the level left
# Rattus norvegicus [18] = assay: Antagonist activity after subcutaneously administration of nicotine at a dose of 2.5 mg/kg in tail-flick test at a concentration of 0.01 mg/kg; assay type: functional; set-up: scale not given: the % may be the effect or the level left
# Neuronal acetylcholine receptor subunit alpha-7, sequence (Q05941 whole entry): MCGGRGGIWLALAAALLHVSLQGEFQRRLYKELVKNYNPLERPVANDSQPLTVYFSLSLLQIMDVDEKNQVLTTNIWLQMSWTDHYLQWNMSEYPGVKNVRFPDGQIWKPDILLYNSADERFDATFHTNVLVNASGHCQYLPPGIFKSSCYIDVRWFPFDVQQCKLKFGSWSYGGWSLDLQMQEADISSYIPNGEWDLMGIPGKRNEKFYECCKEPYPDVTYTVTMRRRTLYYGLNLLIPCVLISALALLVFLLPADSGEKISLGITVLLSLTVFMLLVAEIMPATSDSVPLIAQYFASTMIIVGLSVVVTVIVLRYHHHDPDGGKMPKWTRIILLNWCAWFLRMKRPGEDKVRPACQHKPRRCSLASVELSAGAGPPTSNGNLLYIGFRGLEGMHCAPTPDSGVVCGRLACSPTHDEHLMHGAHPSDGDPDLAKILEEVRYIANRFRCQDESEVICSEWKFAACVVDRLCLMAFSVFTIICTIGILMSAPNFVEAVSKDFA
Structure (SMILES),Ki [1] [pM],ED50 (Rattus norvegicus [2]) [µg/kg],ED50 (Rattus norvegicus [3]) [µg/kg],ED50 (Rattus norvegicus [4]) [µg/kg],further results
Nc1ncc([C@H]2CC3CCC2N3)cc1Br (stereo partly drawn),290,50,75,70,–
Fc1ncc([C@H]2CC3CCC2N3)cc1I (stereo partly drawn),51,900,300,700,Effect (Rattus norvegicus [5]): 0%; Effect (Rattus norvegicus [6]): 0%
Ic1ccc(C2CC3CCC2N3)cn1 (stereo not drawn),70,–,–,–,–
Fc1cc(C2CC3CCC2N3)cnc1Cl (stereo not drawn),25,9,6,8,Ki [7]: 3430 pM
Fc1ncc([C@H]2CC3CCC2N3)cc1Br (stereo partly drawn),71,1200,10,700,Effect (Rattus norvegicus [5]): 0%; Effect (Rattus norvegicus [6]): 0%
Brc1cc([C@H]2CC3CCC2N3)cnc1I (stereo partly drawn),27,240,40,270,Effect (Rattus norvegicus [8]): 0%; Effect (Rattus norvegicus [6]): 4%
Clc1ccc(C2CC3CCC2N3)cn1 (racemic) [EPIBATIDINE],–,–,–,–,ED50 (Rattus norvegicus [9]): 4 µg/kg; ED50 (Rattus norvegicus [10]): 4 µg/kg; ED50 (Rattus norvegicus [11]): 6 µg/kg
Brc1cc([C@H]2CC3CCC2N3)cnc1Br (stereo partly drawn),15,–,–,–,–
Fc1cc([C@H]2CC3CCC2N3)cnc1F (stereo partly drawn),55,–,–,–,–
Nc1cc([C@H]2CC3CCC2N3)cnc1Cl (stereo partly drawn),1,20,17,20,Ki [7]: 13900 pM; AD50 (Rattus norvegicus [12]): 0.6 µg/kg; AD50 (Rattus norvegicus [13]): 0.03 µg/kg
Brc1ccc([C@H]2CC3CCC2N3)cn1 (stereo partly drawn),23,–,–,–,–
Oc1ncc([C@H]2CC3CCC2N3)cc1Br (stereo partly drawn),14400,–,–,–,Effect [14]: 0%; Effect [15]: 1%; Effect [16]: 9%
Fc1ccc(C2CC3CCC2N3)cn1 (stereo not drawn),27,–,–,–,–
Oc1ccc([C@H]2CC3CCC2N3)cn1 (stereo partly drawn),1500,–,–,–,Ki [7]: 675000 pM; ED50 (Rattus norvegicus [9]): 500 µg/kg; ED50 (Rattus norvegicus [10]): 1200 µg/kg; ED50 (Rattus norvegicus [11]): 1500 µg/kg
Clc1cc([C@H]2CC3CCC2N3)cnc1Cl (stereo partly drawn),14,30,20,50,Ki [7]: 1120 pM
Clc1ncc([C@H]2CC3CCC2N3)cc1Br (stereo partly drawn),13,20,40,30,–
Nc1ncc([C@H]2CC3CCC2N3)cc1I (stereo partly drawn),520,500,300,650,Ki [7]: 34100 pM
Fc1ncc([C@H]2CC3CCC2N3)cc1Cl (stereo partly drawn),20,–,–,–,–
Nc1ccc([C@H]2CC3CCC2N3)cn1 (stereo partly drawn),1300,–,–,–,–
Clc1ncc(C2CC3CCC2N3)cc1I (stereo not drawn),8,140,27,240,Effect (Rattus norvegicus [17]): 0%; Effect (Rattus norvegicus [18]): 4%
